Reference: patent publication EP0306904A2, “Phosphoric acid diesters and salts thereof” (Senju Pharmaceutical Co., Ltd., priority 1987, dated 1989)

Experiments:
[1] = tested on: mixture micelles, which were prepared from phospholipid (egg lecithin) and ethanol; test: Anti-oxidative activity: oxidation of mixture micelles (egg lecithin and ethanol) by ferrous-ion/ascorbic acid, thiobarbituric acid readout; format: biochemical; settings: for Rate of inhibition (%): 25 °C, 15 min, ferrous sulfate/sodium ascorbate; for inhibition of oxidation: summary in words of the micelle oxidation results
Procedure: Anti-oxidative activity of the compounds prepared in example 1 and example 4 were determined using, as an index, oxidation of mixture micelles, which were prepared from phospholipid (egg lecithin) and ethanol, by ferrous-ion/ascorbic acid
To a solution of approx. 78 mg of egg lecithin in 2 ml of ethanol was added gradually 5 mM HEPES buffer solution (pH 7.2), under sonication (50 W) and ice-cooling, to make a 100-ml suspension. To 1,000 µ l of the suspension were added 200 µ l of 2.6 x 10⁻⁴ M solution of one of the test compounds in 50 v/v % ethanol, 50 µ l of 5.0 x 10⁻⁵ M sodium ascorbate solution in water and 50 µ l of 2.5 x 10⁻⁶ M ferrous sulfate solution in water. The mixture was placed in a water bath at 25 °C for 15 min for oxidation. Instantly after the reaction, 50 µ l of 0.1 % hydroquinone solution in ethanol was added to stop the reaction. To the mixture were added 200 µ l of 20 w/v % trichloroacetic acid and 2,000 µ l of 50 v/v % acetic acid containing thiobarbituric acid (Merck) at the concentration of 0.35 %, followed by heating for 15 min under reflux at 100 °C. After cooling, absorp tion within the range of 450-600 nm was measured by spectrophotography, within which range increase in absorbance at approx. 530-540 nm was determined. […]

lens = test: Anti-oxidative activity in a model employing UV-induced oxidation of the lens
[2] = Final concentration 4.0 x 10⁻⁵ (unit not given; M)
[3] = Final concentration 4.0 x 10⁻⁶ (unit not given; M)

SMILES | Rate of inhibition (%) [1, 2] | Rate of inhibition (%) [1, 3] | inhibition of oxidation [1] | inhibition of accumulation of malonedialdehyde (lens)
Cc1c(C)c2c(c(C)c1OP(=O)([O-])OC1=C(O)[C@@H]([C@@H](O)CO)OC1=O)CCC(C)(CCCC(C)CCCC(C)C)O2.[K+] (stereo partly drawn) [Example 1, potassium salt of phosphoric acid (L-ascorbic acid-2-0)(2,5,7,8-tetramethyl-2-(4,8-dimethylnonyl)chromanyl-6) ester] | 94.44% | 89.57% | nearly complete inhibition of oxidation | significant inhibition
Cc1c(C)c2c(c(C)c1OP(=O)([O-])OC1=C(O)[C@@H]([C@@H](O)CO)OC1=O)CCC(C)(CCCC(C)CCCC(C)CCCC(C)CCCC(C)C)O2.[K+] (stereo partly drawn) [Example 4, potassium salt of phosphoric acid (L-ascorbic acid-2-0)(2,5,7,8-tetramethyl-2-(4,8,12,16-tetramethylheptadecyl)chromanyl-6) ester] | 99.90% | 95.22% | nearly complete inhibition of oxidation | significant inhibition
